Consider three molecules from article PMC11641365, “Evaluation of In Vitro Biological Activity of Flavanone/Chromanone Derivatives: Molecular Analysis of Anticancer Mechanisms in Colorectal Cancer” (International Journal of Molecular Sciences, 2024).

Experiment [1] relates to poly-ADP ribose polymerase (PARP). Also noted: method as in PMID 35682740. The settings on record: previous work of the authors; cited from earlier work.
A further experiment has as its system Caco-2. The experiment can be described thus: MTT cell viability assay. It is filed as cell-based, human. The settings on record: Homo sapiens, Caco-2, 24 h, 24 h incubation with compound, mean ± SD of three experiments, read-out: Cytotoxic effect, IC50. The procedure:
(§1) The cytotoxic activity of the 3-benzylideneflavanones, 3-benzylidenechromanones derivatives (compounds 1, 2, 3, 4, 5) and 5′-(3-methoxyphenyl)-2-phenyl-4′,5′-dihydro-4H-spiro[chromano-3,3′-pirazol]-4-one (compound 3a) was evaluated using the MTT assay (4,5-dimethylthiazol-2-yl)-2,5-diphenyltetrazoliumbromide), a colorimetric method that quantifies cell viability.
(§2) Cell viability was determined using the metabolic microplate spectrophotometric assay with Methylthiazolyl diphenyltetrazolium bromide (MTT) (Sigma-Aldrich; St. Louis, MO, USA). The MTT method belongs to metabolic tests for determining cell viability and consists of measuring the absorbance of a violet solution of formazan, a product of the reduction of a water-soluble yellow MTT by oxidoreductive enzymes (mainly mitochondrial succinate dehydrogenase) of living cells. The amount of the reaction product (water-insoluble formazan crystals) is proportional to the number of living and metabolically active cells in the sample. In the case of damaged or dead cells, formazan is formed in smaller amounts, or it is not formed.
(§3) The appropriate number of cells for a given cell line (6–8 × 10^3 cells/mL) were seeded onto colorless, sterile 96-well microplates (Nunc, Roskilde, Denmark) in the number appropriate for a given cell line. After 24 h of culture, various concentrations of the studied compounds (10^−7–10^−5 M) freshly prepared in DMSO (final concentration DMS < 0.1%) and diluted with complete culture medium were added and incubated in a CO2 incubator for 24 h. After this time, the medium was removed; the cell monolayer was washed twice with sterile PBS solution; and fresh culture medium was added to the microplate wells. After 48 h of cell culture, the MTT test was performed. A volume of 50 μL of tetrazolium salt solution (final concentration 0.05 mg/mL) was added to each microplate well. The microplate was placed for 3–4 h (depending on the cell line) in a CO2 incubator. After incubation, 100 μL of DMSO was added to the wells of the microplate to dissolve the purple formazan crystals formed in the living cell environment. The absorbance of the formazan solution, after gentle mixing, was read at a wavelength of λ = 580 nm and a reference wavelength of λ = 720 nm (Biotek Power Wave HT, Biotek Instruments, Winooski, VT, USA). The percentage of living cells was calculated by comparing the absorbance value of the tested samples with the absorbance value of the control (cells not treated with compounds). The absorbance of the control was taken as 100%.
Background: Tetrazolium dyes change colour on reduction, which living cells bring about.

Another experiment has as its system HT-29. The experiment can be described thus: MTT cell viability assay. It is filed as cell-based, human. The conditions noted are these: Homo sapiens, HT-29, 24 h, HT-29, 24 h incubation with compound, mean ± SD of three experiments, read-out: Cytotoxic effect, IC50. As to the method: as §1, §2, §3
The subject of experiment [2] is human colon cancer cell lines: HCT 116, SW620, LoVo, Caco-2, and HT-29. The experiment can be described thus: MTT cell viability assay, statements across the panel. It is filed as cell-based. The conditions noted are these: Homo sapiens, range over the cancer cell lines, read-out: IC50 range against colon cancer cell lines. The procedure:
The cytotoxic activity of the 3-benzylideneflavanones, 3-benzylidenechromanones derivatives (compounds 1, 2, 3, 4, 5) and 5′-(3-methoxyphenyl)-2-phenyl-4′,5′-dihydro-4H-spiro[chromano-3,3′-pirazol]-4-one (compound 3a) was evaluated using the MTT assay (4,5-dimethylthiazol-2-yl)-2,5-diphenyltetrazoliumbromide), a colorimetric method that quantifies cell viability. […] These IC50 values were subsequently used for all experiments investigating the anticancer activity of the flavanone/chromanone derivatives in this study.
as §2
as §3, with “100%. […] Moreover, cisplatin (Sigma-Aldrich, St. Louis, MO, USA) was used as a reference compound, and identical incubation conditions were used as described above.” for “100%.”

A further experiment has as its system LoVo. The experiment in a line: MTT cell viability assay. It is filed as cell-based. The conditions noted are these: Homo sapiens, 24 h incubation with compound, mean ± SD of three experiments, read-out: Cytotoxic effect, IC50. The procedure: as §1, §2, §3
The next experiment relates to HCT 116. The experiment in a line: MTT cell viability assay. It is filed as cell-based. The conditions noted are these: Homo sapiens, 24 h incubation with compound, mean ± SD of three experiments, read-out: Cytotoxic effect, IC50. The procedure:
as §1, §2, §3

Another experiment has as its system SW620. The experiment can be described thus: MTT cell viability assay. The conditions noted are these: Homo sapiens, SW-620, 24 h incubation with compound, mean ± SD of three experiments, read-out: Cytotoxic effect, IC50. It is filed as cell-based. The procedure:
as §1, §2, §3

`Cc1cccc(C2CC3(N=N2)C(=O)c2ccccc2OC3c2ccccc2)c1` (stereo not shown) [5′-(3-methylphenyl)-2-phenyl-4′,5′-dihydro-4H-spiro[chromano-3,3′-pirazol]-4-one]: in experiment [1], the “Interaction with PARP” value was “effectively interacted with poly-ADP ribose polymerase (PARP), leading to its inactivation and degradation”.

In the case of `CCN(CC)c1ccc(/C=C2/C(=O)c3ccccc3OC2c2ccccc2)cc1` (stereo not shown) [Compound 2], the IC50 (commonly the concentration that inhibits the measured activity by half) with Caco-2 is > 250 µM; in the experiment on HT-29, > 250 µM; in experiment [2], 70 to 210 µM; in the experiment on LoVo, 200 ± 6.6 µM; in the experiment with HCT 116 it was 192 ± 3.4 µM; with SW620, 211 ± 2.9 µM.

As to `Cc1ccc(/C=C2/C(=O)c3ccccc3OC2c2ccccc2)cc1` (stereo not shown) [Compound 4], the IC50 was 156 ± 5.2 µM in the experiment with Caco-2; 172 ± 4.2 µM in the experiment on HT-29; 70 to 210 µM in experiment [2]; 178 ± 4.4 µM in the experiment with LoVo; 113 ± 5.1 µM in the experiment with HCT 116; > 250 µM with SW620.
